Results taken from PMC12661054, “The CIP2A-TOPBP1 axis facilitates mitotic DNA repair via MiDAS and MMEJ” (Nature Communications, 2025).

Experiments:
[1] = system: eGFP-TOPBP1 interaction with SLX4, MUS81, ERCC1, BTR complex; assay: eGFP-TOPBP1 co-immunoprecipitation, mitotic HEK293TN cells; assay type: cell-based, human; conditions: eGFP-TOPBP1 Co-IP; RO-3306 7 µM, 30 min
Protocol: (§1) GFP-Trap® Agarose Co-immunoprecipitation
(§2) HEK293TN cells were seeded to be ~25–30% confluence the next day in a 15 cm tissue culture dish. The following day cells were transfected using Lipofectamine 2000 transfection reagent (Thermo Fisher Scientific) with 24 µg of plasmid DNA encoding eGFP-SLX4 or eGFP-TOPBP1 expression cassettes following manufacturer’s instructions.
Forty eight hours post transfection cells were harvested after treatments as described, snap frozen on dry ice and stored at −80 °C. Cell pellets were removed from −80 storage and thawed on ice in 2.4 ml IP buffer 1 (100 mM NaCl, 0.2% Igepal CA-630, 1 mM MgCl2, 10% glycerol, 5 mM NaF, 50 mM Tris-HCl, pH 7.5), supplemented with EDTA Free […] protease inhibitor (Sigma Aldrich) and 25 U ml−1 Benzonase (Novagen). Cells were resuspended and rotated at 4 °C for 90 min. Benzonase was then inhibited by adjusted NaCl concentration to 200 mM and with the addition of 2 mM EDTA, followed by rotation for a further 30 min at 4 °C on a carousel. The cell suspension was then centrifuged at 16,000 x g for 25 min at 4 °C. In parallel, 20 µl agarose binding control bead (bab, Chromotek) slurry was washed with 500 µl IP buffer 2 (200 mM NaCl, 0.2% Igepal CA-630, 1 mM MgCl2, 10% glycerol, 5 mM NaF, 2 mM EDTA, 50 mM Tris-HCl, pH 7.5). The binding control beads were then centrifuged at 2500 x g for 2 min. The supernatant was then removed and the IP2 wash was repeated twice more. Cell lysates (soluble supernatant) were then collected added to the agarose binding control beads in 15 ml centrifuge tubes and subsequently rotated at 4 °C on carousel for 60 min. The agarose binding control beads were then pelleted by centrifugation at 2000 x g for 2 min, the supernatant was then transferred to a new tube. BCA assay was then carried out to determine the protein concentration of the pre-cleared cell lysate. […] The supernatant, now containing eluted material, was transferred to a new 1.5 ml microcentrifuge tube ready for downstream western blot analysis.

[2] = system: eGFP-SLX4 interaction with TOPBP1, MUS81, ERCC1; assay: eGFP-SLX4 co-immunoprecipitation, mitotic HEK293TN cells; assay type: cell-based, human; conditions: eGFP-SLX4 Co-IP; RO-3306 7 µM, 30 min, nocodazole-synchronised
Protocol: as §1, §2
Forty eight hours post transfection cells were harvested after treatments as described, snap frozen on dry ice and stored at −80 °C. Cell pellets were removed from −80 storage and thawed on ice in 2.4 ml IP buffer 1 (100 mM NaCl, 0.2% Igepal CA-630, 1 mM MgCl2, 10% glycerol, 5 mM NaF, 50 mM Tris-HCl, pH 7.5), supplemented with EDTA Free […] protease inhibitor (Sigma Aldrich) and 25 U ml−1 Benzonase (Novagen). Cells were resuspended and rotated at 4 °C for 90 min. Benzonase was then inhibited by adjusted NaCl concentration to 200 mM and with the addition of 2 mM EDTA, followed by rotation for a further 30 min at 4 °C on a carousel. The cell suspension was then centrifuged at 16,000 x g for 25 min at 4 °C. […] The supernatant, now containing eluted material, was transferred to a new 1.5 ml microcentrifuge tube ready for downstream western blot analysis.

`O=C1NC(=NCc2cccs2)S/C1=C\c1ccc2ncccc2c1` [CDK1i] was tested, and the “interaction between TOPBP1 and MUS81 or ERCC1” value [1] was “disrupted the interaction between TOPBP1 and MUS81 or ERCC1”, the “interaction between TOPBP1 and components of the BTR complex” value [1] was “did not affect the interaction between TOPBP1 and components of the BTR complex” and the “interaction between eGFP-TOPBP1 and SLX4” value [1] was “hindered the interaction between eGFP-TOPBP1 and SLX4”. The “SLX4 Thr1260 phosphorylation and binding of TOPBP1” value [2] was “reduced SLX4 phosphorylation of Thr1260 and binding of TOPBP1” and the “eGFP-SLX4 interaction with MUS81 or ERCC1” value [2] was “did not affect its interaction with MUS81 or ERCC1”.
